# According to PubChem BioAssay (NCI):
#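 Dose response: 5 concentrations. Exposure: 48 h. Format: 96-well plates. Endpoint: linear interpolation; highest concentration if not reached. TGI denotes the concentration required for complete inhibition of growth.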
# Tests used:
# Assay in all cases: NCI anticancer screen, dose series, 48 h
# OVCAR-3 ovarian = tested on: OVCAR-3 ovarian
# MDA-MB-231 breast = tested on: MDA-MB-231 breast
# HL-60(TB) leukemia = tested on: HL-60(TB) leukemia
# OVCAR-5 ovarian = tested on: OVCAR-5 ovarian
# NCI-H226 lung = tested on: NCI-H226 lung
# SW-620 colon = tested on: SW-620 colon
# SK-OV-3 ovarian = tested on: SK-OV-3 ovarian
# DU-145 prostate = tested on: DU-145 prostate
# UACC-62 melanoma = tested on: UACC-62 melanoma
# A498 renal = tested on: A498 renal
# MDA-N = tested on: MDA-N
# PC-3 prostate = tested on: PC-3 prostate
# LOX IMVI melanoma = tested on: LOX IMVI melanoma
# HOP-62 NSCLC = tested on: HOP-62 NSCLC
# M14 melanoma = tested on: M14 melanoma
# CCRF-CEM leukemia = tested on: CCRF-CEM leukemia
# RXF 393 renal = tested on: RXF 393 renal
# SF-295 CNS = tested on: SF-295 CNS
# U251 CNS = tested on: U251 CNS
# UO-31 renal = tested on: UO-31 renal
# NCI-H460 lung = tested on: NCI-H460 lung
# A549 NSCLC = tested on: A549 NSCLC
# K-562 leukemia = tested on: K-562 leukemia
# UACC-257 melanoma = tested on: UACC-257 melanoma
# SN12C renal = tested on: SN12C renal
# HT29 colon = tested on: HT29 colon
# IGROV1 ovarian = tested on: IGROV1 ovarian
# COLO 205 colon = tested on: COLO 205 colon
# RPMI-8226 leukemia = tested on: RPMI-8226 leukemia
# SNB-19 CNS = tested on: SNB-19 CNS
# HS 578T breast = tested on: HS 578T breast
# SR leukemia = tested on: SR leukemia
# NCI-H23 lung = tested on: NCI-H23 lung
# EKVX NSCLC = tested on: EKVX NSCLC
# MDA-MB-435 = tested on: MDA-MB-435
# NCI/ADR-RES ovarian = tested on: NCI/ADR-RES ovarian
# CAKI-1 renal = tested on: CAKI-1 renal
# SF-539 CNS = tested on: SF-539 CNS
# OVCAR-8 ovarian = tested on: OVCAR-8 ovarian
# MOLT-4 leukemia = tested on: MOLT-4 leukemia
# ACHN renal = tested on: ACHN renal
# HCT-116 colon = tested on: HCT-116 colon
# HCT-15 colon = tested on: HCT-15 colon
# SK-MEL-5 melanoma = tested on: SK-MEL-5 melanoma
# TK-10 renal = tested on: TK-10 renal
# 786-0 renal = tested on: 786-0 renal
# SK-MEL-2 melanoma = tested on: SK-MEL-2 melanoma
# MALME-3M melanoma = tested on: MALME-3M melanoma
# HCC-2998 colon = tested on: HCC-2998 colon
# HOP-92 NSCLC = tested on: HOP-92 NSCLC
# BT-549 breast = tested on: BT-549 breast
# MCF7 breast = tested on: MCF7 breast
# SK-MEL-28 melanoma = tested on: SK-MEL-28 melanoma
# KM12 colon = tested on: KM12 colon
# OVCAR-4 ovarian = tested on: OVCAR-4 ovarian
# NCI-H522 lung = tested on: NCI-H522 lung
smiles,measurement,setting,value
Cc1cccc(N2C(=O)C3c4[nH]c5ccccc5c4C4CCC(C(C)(C)C)CC4C3C2=O)c1C (stereo not drawn),TGI,OVCAR-3 ovarian,> 100 µM
same,TGI,MDA-MB-231 breast,42.3 µM
same,TGI,HL-60(TB) leukemia,60.4 µM
same,TGI,OVCAR-5 ovarian,> 100 µM
same,TGI,NCI-H226 lung,> 100 µM
same,TGI,SW-620 colon,> 100 µM
same,TGI,SK-OV-3 ovarian,> 100 µM
same,TGI,DU-145 prostate,> 100 µM
same,TGI,UACC-62 melanoma,> 100 µM
same,TGI,A498 renal,> 100 µM
same,TGI,MDA-N,> 100 µM
same,TGI,PC-3 prostate,> 100 µM
same,TGI,LOX IMVI melanoma,> 100 µM
same,TGI,HOP-62 NSCLC,> 100 µM
same,TGI,M14 melanoma,> 100 µM
same,TGI,CCRF-CEM leukemia,> 100 µM
same,TGI,RXF 393 renal,> 100 µM
same,TGI,SF-295 CNS,> 100 µM
same,TGI,U251 CNS,83.4 µM
same,TGI,UO-31 renal,> 100 µM
same,TGI,NCI-H460 lung,> 100 µM
same,TGI,A549 NSCLC,> 100 µM
same,TGI,K-562 leukemia,> 100 µM
same,TGI,UACC-257 melanoma,> 100 µM
same,TGI,SN12C renal,> 100 µM
same,TGI,HT29 colon,> 100 µM
same,TGI,IGROV1 ovarian,> 100 µM
same,TGI,COLO 205 colon,> 100 µM
same,TGI,RPMI-8226 leukemia,> 100 µM
same,TGI,SNB-19 CNS,> 100 µM
same,TGI,HS 578T breast,> 100 µM
same,TGI,SR leukemia,> 100 µM
same,TGI,NCI-H23 lung,> 100 µM
same,TGI,EKVX NSCLC,> 100 µM
same,TGI,MDA-MB-435,> 100 µM
same,TGI,NCI/ADR-RES ovarian,> 100 µM
same,TGI,CAKI-1 renal,> 100 µM
same,TGI,SF-539 CNS,> 100 µM
same,TGI,OVCAR-8 ovarian,> 100 µM
same,TGI,MOLT-4 leukemia,> 100 µM
same,TGI,ACHN renal,> 100 µM
same,TGI,HCT-116 colon,> 100 µM
same,TGI,HCT-15 colon,> 100 µM
same,TGI,SK-MEL-5 melanoma,> 100 µM
same,TGI,TK-10 renal,> 100 µM
same,TGI,786-0 renal,> 100 µM
same,TGI,SK-MEL-2 melanoma,> 100 µM
same,TGI,MALME-3M melanoma,> 100 µM
same,TGI,HCC-2998 colon,> 100 µM
same,TGI,HOP-92 NSCLC,> 100 µM
same,TGI,BT-549 breast,> 100 µM
same,TGI,MCF7 breast,> 100 µM
NC(Cc1ccc(OCc2ccccc2)cn1)C(=O)OCc1ccccc1 (stereo not drawn),TGI,SK-MEL-28 melanoma,> 100 µM
same,TGI,OVCAR-3 ovarian,> 100 µM
same,TGI,MDA-MB-231 breast,> 100 µM
same,TGI,HL-60(TB) leukemia,> 100 µM
same,TGI,OVCAR-5 ovarian,> 100 µM
same,TGI,NCI-H226 lung,> 100 µM
same,TGI,SW-620 colon,> 100 µM
same,TGI,KM12 colon,> 100 µM
same,TGI,DU-145 prostate,> 100 µM
same,TGI,A498 renal,> 100 µM
same,TGI,MDA-N,> 100 µM
same,TGI,PC-3 prostate,> 100 µM
same,TGI,LOX IMVI melanoma,> 100 µM
same,TGI,OVCAR-4 ovarian,> 100 µM
same,TGI,HOP-62 NSCLC,> 100 µM
same,TGI,CCRF-CEM leukemia,> 100 µM
same,TGI,RXF 393 renal,> 100 µM
same,TGI,SF-295 CNS,> 100 µM
same,TGI,U251 CNS,> 100 µM
same,TGI,UO-31 renal,> 100 µM
same,TGI,NCI-H460 lung,> 100 µM
same,TGI,A549 NSCLC,> 100 µM
same,TGI,K-562 leukemia,> 100 µM
same,TGI,UACC-257 melanoma,> 100 µM
same,TGI,SN12C renal,> 100 µM
same,TGI,HT29 colon,> 100 µM
same,TGI,IGROV1 ovarian,> 100 µM
same,TGI,COLO 205 colon,> 100 µM
same,TGI,RPMI-8226 leukemia,> 100 µM
same,TGI,SNB-19 CNS,> 100 µM
same,TGI,HS 578T breast,> 100 µM
same,TGI,SR leukemia,> 100 µM
same,TGI,NCI-H23 lung,> 100 µM
same,TGI,EKVX NSCLC,> 100 µM
same,TGI,NCI-H522 lung,> 100 µM
same,TGI,MDA-MB-435,> 100 µM
same,TGI,NCI/ADR-RES ovarian,> 100 µM
same,TGI,CAKI-1 renal,> 100 µM
same,TGI,SF-539 CNS,> 100 µM
same,TGI,OVCAR-8 ovarian,> 100 µM
same,TGI,ACHN renal,> 100 µM
same,TGI,HCT-116 colon,> 100 µM
same,TGI,HCT-15 colon,> 100 µM
same,TGI,SK-MEL-5 melanoma,> 100 µM
same,TGI,TK-10 renal,> 100 µM
same,TGI,786-0 renal,> 100 µM
same,TGI,MALME-3M melanoma,> 100 µM
same,TGI,HCC-2998 colon,> 100 µM
same,TGI,HOP-92 NSCLC,> 100 µM
same,TGI,BT-549 breast,> 100 µM
same,TGI,MCF7 breast,> 100 µM
